Results from article PMC12749127 (Scientific Reports, 2025).

What was measured:
DENV-2 = experiment: IMPA1 silencing using siRNA, DENV-2 virus titer in imHC cells; type: cell-based; conditions: Dengue virus, DENV2, read-out: decrease of inhibitory effect of ebselen in si_IMPA1-silenced cells
PI(4)P and ZIKV-NS1 = experiment: Immunofluorescence of PI; type: cell-based; conditions: ZIKV-infected imHC cells, MOI 1, 48 hpi, ebselen treatment
myo-inositol levels = experiment: Cellular myo-inositol levels; type: cell-based; conditions: 30 mM LiCl or 25 µM ebselen
[1] = target: T1, recombinant human inositol monophosphatase 1 (IMPA1) (Homo sapiens, UniProt P29218); experiment: In vitro enzymatic assay of IMPA activity; type: biochemical
T1 sequence (P29218 1-277): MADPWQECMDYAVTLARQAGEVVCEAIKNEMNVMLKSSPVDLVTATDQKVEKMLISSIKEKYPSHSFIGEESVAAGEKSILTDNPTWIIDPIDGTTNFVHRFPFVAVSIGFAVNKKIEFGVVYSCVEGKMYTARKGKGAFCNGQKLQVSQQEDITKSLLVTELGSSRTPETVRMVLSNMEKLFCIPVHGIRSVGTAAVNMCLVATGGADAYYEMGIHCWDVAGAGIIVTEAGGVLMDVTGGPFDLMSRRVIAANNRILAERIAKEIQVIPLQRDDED

recombinant bovine IMPA = conditions: read-out: inhibition constant (Ki); cited from earlier work
recombinant human IMPA = conditions: read-out: inhibition constant (Ki); cited from earlier work
IMPA = conditions: in vitro assays; cited from earlier work
PI(4)P = experiment: Immunofluorescence of PI; type: cell-based, human; conditions: imHC cells, 24 hours of treatment

SMILES: O=c1c2ccccc2[se]n1-c1ccccc1 [Ebselen]
- inhibition at 20 µM (DENV-2): ~16%
- PI(4)P levels (in words) (PI(4)P and ZIKV-NS1): reduction
- ZIKV-NS1 protein expression (in words) (PI(4)P and ZIKV-NS1): reduction
- myo-inositol levels vs untreated control (in words) (myo-inositol levels): significant reduction
- IC50 [1]: 950 nM

SMILES: CC(Oc1ccc(O)cc1)(P(=O)(O)O)P(=O)(O)O [L-690,330]
- Ki (recombinant bovine IMPA): 190 nM
- Ki (recombinant human IMPA): 270 nM
- potency relative to lithium (in words) (IMPA): approximately a thousand-fold greater potency than lithium

SMILES: [Cl-].[Li+] [LiCl]
- myo-inositol levels vs untreated control (in words) (myo-inositol levels): significant reduction

SMILES: O[C@H]1[C@H](O)[C@@H](O)[C@H](O)[C@@H](O)[C@H]1O [inositol]
- PI(4)P levels following the addition of inositol (in words) (PI(4)P): increased levels
